These results are taken from patent US12122761B2, “2-azaspiro[3.4]octane derivatives as M4 agonists” (NOVARTIS AG, priority 2019, dated 2024).

Assay [1] concerns the target T1, Cloned human M1 receptor (CHRM1) stably expressed in HEK293 cells (Homo sapiens, UniProt P11229).
T1 construct: expressed in transfected cells; host or cells: HEK293
T1 sequence (P11229 1-460): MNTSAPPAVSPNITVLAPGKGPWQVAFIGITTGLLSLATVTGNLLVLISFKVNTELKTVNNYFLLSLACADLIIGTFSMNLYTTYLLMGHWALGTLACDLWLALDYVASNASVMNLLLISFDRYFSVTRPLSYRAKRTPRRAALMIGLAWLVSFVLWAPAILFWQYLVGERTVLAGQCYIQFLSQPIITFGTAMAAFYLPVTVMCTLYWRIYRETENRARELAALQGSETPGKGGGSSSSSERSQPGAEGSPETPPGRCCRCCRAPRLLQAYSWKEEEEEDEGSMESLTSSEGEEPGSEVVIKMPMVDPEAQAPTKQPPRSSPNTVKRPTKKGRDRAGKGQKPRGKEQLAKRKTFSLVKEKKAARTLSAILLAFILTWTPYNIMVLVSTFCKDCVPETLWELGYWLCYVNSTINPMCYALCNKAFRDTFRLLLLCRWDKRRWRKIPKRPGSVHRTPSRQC
The experiment in a line: CHRM1 Ca++ Flux Assay (agonist mode, FDSS 7000EX). Type of assay: cell-based. The note with it: for M1 FDSS PA: Percent Activity; for EC50: geometric mean if tested more than once. In outline: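 Compounds tested as agonists at 11 concentrations in triplicate, with calcium traces captured over 3 minutes. Cells were HEK293 with stable human CHRM1 expression, plated overnight at 25K/well and loaded with calcium dye. Responses normalized to carbachol EC100 and fitted by four-parameter nonlinear regression.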

Assay [2] deals with T2, human cloned CHRM3 receptor (M3_CHO cells) (Homo sapiens, UniProt P20309).
T2 construct: expressed in transfected cells; host or cells: CHO-K1
Nature of the assay: CHRM3 Ca++ Flux Assay (agonist mode, FDSS 7000EX). The class given is cell-based. The note with it: for M3 FDSS PA: Percent Activity measured to EC100 of Carbachol; for EC50: agonist mode, geometric mean if tested more than once, read-out: M3 FDSS EC50. An outline of the steps:
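Stable CHO-K1 lines (human M3 or M5), calcium-dye loaded ≥1 h, assayed in Ca/Mg-free HBSS + 20 mM HEPES + 2.5 mM probenecid. 11-pt dose response, triplicate, 3 min fluorescence read. 4-parameter regression; % activity vs carbachol EC100.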

T2 sequence (P20309 whole entry): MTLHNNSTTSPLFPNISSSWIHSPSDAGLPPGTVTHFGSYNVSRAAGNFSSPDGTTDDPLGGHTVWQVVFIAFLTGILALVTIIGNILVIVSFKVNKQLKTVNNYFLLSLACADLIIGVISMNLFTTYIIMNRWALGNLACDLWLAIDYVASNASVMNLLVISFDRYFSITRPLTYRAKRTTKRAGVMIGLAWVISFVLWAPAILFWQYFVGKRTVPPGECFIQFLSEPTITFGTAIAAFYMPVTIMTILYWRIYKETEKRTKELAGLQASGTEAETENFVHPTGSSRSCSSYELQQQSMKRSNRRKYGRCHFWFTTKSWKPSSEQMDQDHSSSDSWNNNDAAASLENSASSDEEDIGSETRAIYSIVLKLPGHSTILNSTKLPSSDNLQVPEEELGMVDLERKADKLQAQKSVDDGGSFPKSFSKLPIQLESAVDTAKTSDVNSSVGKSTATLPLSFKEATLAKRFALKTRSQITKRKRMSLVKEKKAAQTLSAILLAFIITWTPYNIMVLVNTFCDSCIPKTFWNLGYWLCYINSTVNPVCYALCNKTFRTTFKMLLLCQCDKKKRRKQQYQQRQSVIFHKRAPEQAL

For `Fc1cncc(N2CC3(CC[C@@H](N4CCC(c5cc(F)ccc5OC5CCOCC5)CC4)C3)C2)c1` (single isomer, unassigned) [Example 10A, (R)-6-(4-(5-fluoro-2-((tetrahydro-2H-pyran-4-yl)oxy)phenyl)piperidin-1-yl)-2-(5-fluoropyridin-3-yl)-2-azaspiro[3.4]octane or (S)-6-(4-(5-fluoro-2-((tetrahydro-2H-pyran-4-yl)oxy)phenyl)piperidin-1-yl)-2-(5-fluoropyridin-3-yl)-2-azaspiro[3.4]octane], in assay [1], the “M1 FDSS PA” value worked out at 34% and a half-maximal effect (EC50) was put at 1.33 µM. For the same compound, in assay [2], the “M3 FDSS PA” value is 0% and the EC50 was greater than 25 µM.

Consider `Fc1cncc(N2CC3(CC[C@@H](N4CCC(c5cc(F)ccc5OC5CCOCC5)CC4)C3)C2)c1` (single isomer, unassigned) [Example 10B, (R)-6-(4-(5-fluoro-2-((tetrahydro-2H-pyran-4-yl)oxy)phenyl)piperidin-1-yl)-2-(5-fluoropyridin-3-yl)-2-azaspiro[3.4]octane or (S)-6-(4-(5-fluoro-2-((tetrahydro-2H-pyran-4-yl)oxy)phenyl)piperidin-1-yl)-2-(5-fluoropyridin-3-yl)-2-azaspiro[3.4]octane], for which the EC50 in assay [1] is greater than 25 µM. In assay [2], the “M3 FDSS PA” value is reported as 0% and the EC50 was greater than 25 µM.

In the case of `Fc1ccc(C2CCOCC2)c(C2CCN([C@@H]3CCC4(C3)CN(c3cncnc3)C4)CC2)c1` (single isomer, unassigned) [Example 10C, (R)-6-(4-(5-fluoro-2-(tetrahydro-2H-pyran-4-yl)phenyl)piperidin-1-yl)-2-(pyrimidin-5-yl)-2-azaspiro[3.4]octane or (S)-6-(4-(5-fluoro-2-(tetrahydro-2H-pyran-4-yl)phenyl)piperidin-1-yl)-2-(pyrimidin-5-yl)-2-azaspiro[3.4]octane], in assay [1], the “M1 FDSS PA” value was found to be 76% and it took 0.08 µM to reach a half-maximal effect (EC50). In assay [2], the “M3 FDSS PA” value worked out at 0% and the EC50 is greater than 25 µM.

Regarding `Fc1ccc(C2CCOCC2)c(C2CCN([C@@H]3CCC4(C3)CN(c3cncnc3)C4)CC2)c1` (single isomer, unassigned) [Example 10D, (R)-6-(4-(5-fluoro-2-(tetrahydro-2H-pyran-4-yl)phenyl)piperidin-1-yl)-2-(pyrimidin-5-yl)-2-azaspiro[3.4]octane or (S)-6-(4-(5-fluoro-2-(tetrahydro-2H-pyran-4-yl)phenyl)piperidin-1-yl)-2-(pyrimidin-5-yl)-2-azaspiro[3.4]octane], in assay [1], the “M1 FDSS PA” value stood at 55% and it took 1.41 µM to reach a half-maximal effect (EC50). Moreover, in assay [2], the “M3 FDSS PA” value turned out to be 0% and the EC50 is greater than 25 µM.

In the case of `Fc1ccc(OC2CC3(COC3)C2)c(C2CCN([C@@H]3CCC4(C3)CN(c3cncnc3)C4)CC2)c1` (single isomer, unassigned) [Example 10E, (R)-6-(4-(2-((2-oxaspiro[3.3]heptan-6-yl)oxy)-5-fluorophenyl)piperidin-1-yl)-2-(pyrimidin-5-yl)-2-azaspiro[3.4]octane or (S)-6-(4-(2-((2-oxaspiro[3.3]heptan-6-yl)oxy)-5-fluorophenyl)piperidin-1-yl)-2-(pyrimidin-5-yl)-2-azaspiro[3.4]octane], in assay [1], the “M1 FDSS PA” value is on record as 4% and the EC50 came to 3.99 µM. In assay [2], the “M3 FDSS PA” value stood at 0% and the EC50 is greater than 25 µM.

Turning to `Fc1ccc(OC2CC3(COC3)C2)c(C2CCN([C@@H]3CCC4(C3)CN(c3cncnc3)C4)CC2)c1` (single isomer, unassigned) [Example 10F, (R)-6-(4-(2-((2-oxaspiro[3.3]heptan-6-yl)oxy)-5-fluorophenyl)piperidin-1-yl)-2-(pyrimidin-5-yl)-2-azaspiro[3.4]octane or (S)-6-(4-(2-((2-oxaspiro[3.3]heptan-6-yl)oxy)-5-fluorophenyl)piperidin-1-yl)-2-(pyrimidin-5-yl)-2-azaspiro[3.4]octane], in assay [1], the “M1 FDSS PA” value was found to be 0% and the 50% effective concentration (EC50) is greater than 25 µM. Also, in assay [2], the “M3 FDSS PA” value is recorded as 0% and the EC50 is greater than 25 µM.

With `Fc1ccc(OC2CCOCC2)c(C2CCN([C@@H]3CCC4(C3)CN(c3cncnc3)C4)CC2)c1` (single isomer, unassigned) [Example 10G, (R)-6-(4-(5-fluoro-2-((tetrahydro-2H-pyran-4-yl)oxy)phenyl)piperidin-1-yl)-2-(pyrimidin-5-yl)-2-azaspiro[3.4]octane or (S)-6-(4-(5-fluoro-2-((tetrahydro-2H-pyran-4-yl)oxy)phenyl)piperidin-1-yl)-2-(pyrimidin-5-yl)-2-azaspiro[3.4]octane], in assay [1], the “M1 FDSS PA” value amounted to 64% and the EC50 was 0.063 µM. Also, in assay [2], the “M3 FDSS PA” value was 0% and the EC50 is greater than 25 µM.

Turning to `Fc1ccc(OC2CCOCC2)c(C2CCN([C@@H]3CCC4(C3)CN(c3cncnc3)C4)CC2)c1` (single isomer, unassigned) [Example 10H, (R)-6-(4-(5-fluoro-2-((tetrahydro-2H-pyran-4-yl)oxy)phenyl)piperidin-1-yl)-2-(pyrimidin-5-yl)-2-azaspiro[3.4]octane or (S)-6-(4-(5-fluoro-2-((tetrahydro-2H-pyran-4-yl)oxy)phenyl)piperidin-1-yl)-2-(pyrimidin-5-yl)-2-azaspiro[3.4]octane], in assay [1], the “M1 FDSS PA” value is given as 36% and it took 1.39 µM to reach a half-maximal effect (EC50). Further, in assay [2], the “M3 FDSS PA” value stood at 0% and the EC50 was greater than 25 µM.

Regarding `COc1ccccc1C1CCN([C@H]2CCC3(C2)CN(c2ncco2)C3)CC1` (single isomer, unassigned) [Example 10I, S)-2-(6-(4-(2-methoxyphenyl)piperidin-1-yl)-2-azaspiro[3.4]octan-2-yl)oxazole or (R)-2-(6-(4-(2-methoxyphenyl)piperidin-1-yl)-2-azaspiro[3.4]octan-2-yl)oxazole], in assay [1], the “M1 FDSS PA” value is recorded as 0% and the half-maximal effective concentration (EC50) was greater than 25 µM. Besides, in assay [2], the “M3 FDSS PA” value was found to be 0% and the EC50 is greater than 25 µM.

As for `COc1ccccc1C1CCN([C@H]2CCC3(C2)CN(c2ncco2)C3)CC1` (single isomer, unassigned) [Example 10J, (S)-2-(6-(4-(2-methoxyphenyl)piperidin-1-yl)-2-azaspiro[3.4]octan-2-yl)oxazole or (R)-2-(6-(4-(2-methoxyphenyl)piperidin-1-yl)-2-azaspiro[3.4]octan-2-yl)oxazole], in assay [1], the “M1 FDSS PA” value is on record as 66% and the midpoint of the response, the EC50, lay at 0.02 µM. In addition, in assay [2], the “M3 FDSS PA” value was 0% and the EC50 is greater than 25 µM.

As to `FC(F)(F)Oc1ccccc1C1CCN([C@@H]2CCC3(C2)CN(c2ncco2)C3)CC1` (single isomer, unassigned) [Example 10K, (R)-2-(6-(4-(2-(trifluoromethoxy)phenyl)piperidin-1-yl)-2-azaspiro[3.4]octan-2-yl)oxazole or (S)-2-(6-(4-(2-(trifluoromethoxy)phenyl)piperidin-1-yl)-2-azaspiro[3.4]octan-2-yl)oxazole], in assay [1], the “M1 FDSS PA” value is 65% and the EC50 was found to be 0.094 µM. In assay [2], the “M3 FDSS PA” value worked out at 0% and the 50% effective concentration (EC50) was greater than 25 µM.

The EC50 is the concentration giving half of the maximal effect.
